Test results: ChEMBL document CHEMBL1158085, “Chrysosporide, a cyclic pentapeptide from a New Zealand sample of the fungus Sepedonium chrysospermum” (J Nat Prod, 2006)

Test system: P388
Assay: Cytotoxicity against mouse P388 cells
Assay type: functional, cell-based

SMILES	IC50 [µM]
Cc1cc(O)c(C)c(O)c1C=O	126
CC(=O)Cc1cc(O)c(C)c(O)c1C=O	19.7
CC(C)C[C@@H]1NC(=O)[C@H](CC(C)C)NC(=O)[C@@H](C)NC(=O)[C@H](C(C)C)NC(=O)[C@@H](CC(C)C)NC1=O [CHRYSOSPORIDE]	33.4
C/C=C/[C@@H]1OC(=O)C=C[C@@H]1O [PHOMALACTONE]	40.9
